Source: paper PMC9312958, “A Novel and Selective Dopamine Transporter Inhibitor, (S)-MK-26, Promotes Hippocampal Synaptic Plasticity and Restores Effort-Related Motivational Dysfunctions” (Biomolecules, 2022)

Columns and labels:
hDAT = biological target: T1, hDAT (Homo sapiens, UniProt Q01959); test: hDAT radioligand binding assay (CHO cells, [3H]BTCP)
T1 construct: expressed in transfected cells
Description: Binding affinity to the hDAT, hNET and hSERT expressed in CHO cells was evaluated in in vitro radioligand binding assays. Binding assays were conducted according to the standard and validated protocols under conditions defined by the contractor (Eurofins Cerep SA, Celle-’Evescault, France; study number 100054410). Antagonist radioligand assays were conducted for the human norepinephrine, the human dopamine, and the serotonin transporters (using CHO cells), using [^3H]nisoxetine (1 nM), [^3H]BTCP (4 nM), and [^3H]imipramine (2 nM) as ligands and desipramine (1 µM), BTCP (10 µM), and imipramine (10 µM) as non-specific agents, respectively (with scintillation counting as detection method).

[1] = test system: extracellular dopamine levels; test: In vivo microdialysis of extracellular dopamine (mPFC, NAc shell, NAc core); parameters: species or system Male Sprague Dawley rats; conditions: for DA Concentrations (as Determined from AUCs): mean ± SEM
Description: Male Sprague Dawley rats (250–350 g, Janvier, France) were used for all in vivo microdialysis experiments. Animals were kept in groups of four in standard cages (38 cm × 60 cm × 20 cm) and were acclimated to the facility for at least ten days before the beginning of the experiment under controlled environmental conditions (22 ± 2 °C, 60% humidity, 12 h light/dark cycle, with lights on from 08:00 to 20:00 h), with water and standard laboratory food provided ad libitum. To limit the stress due to manipulation during the experiments, each animal was daily handled for approximately 1–2 min throughout the habituation period and contact with the animal house maintenance personnel was limited to a single attendant. The bedding in the home cages was never changed, neither the day before nor the day of the experiment. All experiments were performed between 10:00–18:00 h. (S)-MK-26 (1 or 10 mg/kg) or vehicle (Kolliphor 30% in distilled water) were freshly prepared on the day of the experiment and i.p. administered at a volume of 1.5 mL/kg. The day before the microdialysis experiment, rats were positioned in a stereotaxic apparatus (Stoelting Co., Wood Dale, IL, USA) and under isoflurane anaesthesia (1.5–2%) (Harvard Apparatus, Holliston, MA, USA) implanted with a vertical microdialysis probe. A probe with dialysis membrane of approximately 2–3 mm of free surface (prepared as previously described) was directed unilaterally at the mPFC (PrL and IL; coordinates: 3.0 mm anterior and 0.7 mm lateral to bregma, and 5.5 mm ventral to dura), at the NAc shell (coordinates: 2.0 mm anterior and 0.8 mm lateral to bregma, and 8.0 mm ventral to dura) or NAc core (coordinates: 1.6 mm anterior and 1.6 mm lateral to bregma, and 7.6 mm ventral to dura), according to the rat brain atlas. On the day of the experiment, the animals were transferred to a sound-proof room and after 1 h habituation period, the microdialysis probe was connected with polyethylene tubing to a CMA/100 microinfusion pump (Harvard Apparatus, Holliston, MA, USA) and perfused with a Ringer’s solution (147 mM NaCl, 3 mM KCl and 1.2 mM CaCl2, pH 6.5) at a flow rate of 2.5 µL/min. After an equilibration period of a 2 h of the perfusion medium with the extracellular fluid, dialysate aliquots of 37.5 µL were collected (every 15 min during the experiment) in polyethylene tubes kept on ice for the determination of dopamine concentrations. After collecting at least four dialysate aliquots, rats were i.p. injected with vehicle or (S)-MK-26 (1 or 10 mg/kg), and ten more dialysate aliquots were collected every 15 min. Dopamine concentrations in the dialysates from the NAc (core and shell) and mPFC were measured by high pressure liquid chromatography (HPLC) on a 7.5 cm × 3.0 mm i.d., Supelcosil C18, 3 µm particle size column, (Supelco, Supelchem, Milan, Italy) coupled to electrochemical detection (Coulochem II, ESA, Cambridge, MA, USA) using a 4011 dual cell, as previously described. Detection was performed in reduction mode, with potentials set to +350 and −180 mV. The mobile phase was 0.06 M citrate/acetate pH 4.2, containing methanol 20% v/v, 0.1 mM EDTA, 1 µM triethylamine, and 0.03 mM sodium dodecyl sulphate at a flow rate of 0.6 mL/min. The sensitivity of the assay was 0.125 pg. At the end of the experiments, the rats were sacrificed by decapitation; the brains were immediately removed from the skull and stored in 4% aqueous formaldehyde for 12–15 days. After this period, 40 µm coronal brain sections were prepared with a freezing microtome, stained with Neutral Red and inspected on a phase contrast microscope. The position of the tip of the microdialysis probe in the NAc (core and shell) and mPFC were then corroborated by following the tract of the microdialysis probe through a series of brain sections. […]

T1 sequence (Q01959 whole entry): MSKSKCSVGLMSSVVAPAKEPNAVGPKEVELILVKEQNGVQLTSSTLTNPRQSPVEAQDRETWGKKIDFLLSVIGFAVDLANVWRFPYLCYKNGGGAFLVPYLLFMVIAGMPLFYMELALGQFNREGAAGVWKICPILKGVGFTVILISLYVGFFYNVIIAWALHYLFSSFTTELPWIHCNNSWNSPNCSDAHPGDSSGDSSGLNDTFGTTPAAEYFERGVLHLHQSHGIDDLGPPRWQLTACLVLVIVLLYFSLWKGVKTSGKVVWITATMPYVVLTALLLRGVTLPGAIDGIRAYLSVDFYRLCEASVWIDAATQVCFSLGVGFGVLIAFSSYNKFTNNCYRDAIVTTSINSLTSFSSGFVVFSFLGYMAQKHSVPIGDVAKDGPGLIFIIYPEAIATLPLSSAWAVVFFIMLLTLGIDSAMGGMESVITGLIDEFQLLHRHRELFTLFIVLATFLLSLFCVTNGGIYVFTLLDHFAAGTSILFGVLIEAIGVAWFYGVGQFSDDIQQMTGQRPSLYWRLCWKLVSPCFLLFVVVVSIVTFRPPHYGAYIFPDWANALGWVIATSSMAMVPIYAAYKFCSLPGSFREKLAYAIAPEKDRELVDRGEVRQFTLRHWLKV

## [O-][S@@+](Cc1cncs1)C(c1cccc(Cl)c1)c1cccc(Cl)c1 [(S)-MK-26, (S)-5-(((B(3-chlorophenyl)methyl)sulphinyl)methyl)thiazole]
hDAT
  Ki: 0.026 µM
[1]; NAc core dialysate, 1 mg/kg i.p.
  DA Concentrations (as Determined from AUCs): 3056 ± 644
[1]; NAc core dialysate, 10 mg/kg i.p.
  DA Concentrations (as Determined from AUCs): 7861 ± 1697
[1]; NAc core, 1 mg/kg i.p.
  peak increase of extracellular dopamine concentration above basal values: about 25%
[1]; NAc core, 10 mg/kg i.p., peak 60–75 min after treatment
  peak increase of extracellular dopamine concentration: about 65%
[1]; NAc shell dialysate, 1 mg/kg i.p.
  DA Concentrations (as Determined from AUCs): 2972 ± 1094
[1]; NAc shell dialysate, 10 mg/kg i.p.
  DA Concentrations (as Determined from AUCs): 7730 ± 1389
[1]; NAc shell, 10 mg/kg i.p., peak 30–45 min after treatment
  peak increase of extracellular dopamine concentration: about 70%
[1]; mPFC dialysate, 1 mg/kg i.p.
  DA Concentrations (as Determined from AUCs): 3159 ± 223
[1]; mPFC dialysate, 10 mg/kg i.p.
  DA Concentrations (as Determined from AUCs): 4983 ± 547
[1]; mPFC, 1 mg/kg i.p., peak at 30 min after treatment
  peak increase of extracellular dopamine concentration: about 40%
[1]; mPFC, 10 mg/kg i.p., peak at 45 min after treatment
  peak increase of extracellular dopamine concentration: about 75%
